What was measured:
G6PDH = experiment: Residual activity of G6PDH in CK activity measurement reagent after heat loading at 37°C (NADPH formation, absorbance at 340 nm); assay type: biochemical; settings: heat loading at 37°C for 5 days; for G6PDH residual activity: relative to reagent without heat loading
Method: (§1) Aminoguanidine was added to the above composition to prepare three kinds of reagents different in the concentration of aminoguanidine. The concentrations of aminoguanidine in these reagents were 10 mM, 20 mM and 40 mM respectively. After these reagents were subjected to heat loading at 37°C for 5 days, the residual activity of G6PDH was measured and the residual amount of SH group in NAC was quantified.
The activity of G6PDH was measured in the following manner. First, a solution wherein 20 mM magnesium chloride, 0.6 mM NADP and 0.5 mM G6P were dissolved in a solution containing 0.1 M glycylglycine (pH 8.5) was prepared. When 300 µl of this solution was mixed with 1 µl of the first reagent, NADPH is formed by the activity of G6DPH. When NADPH is formed, the absorbance at a wavelength of 340 nm is increased, and thus this increase is measured to determine the activity of G6PDH.
(§2) In Table 1, the residual activity of G6PDH and the residual amount of SH group of NAC are expressed in percentage. These values are those relative to the activity of G6PDH and the amount of SH group of NAC in each reagent which without subjection to heat loading, was measured by the method described in Example 1. Table 1 […]

[1] = Residual amount of SH group of NAC in the reagent after heat loading at 37°C (quantification with DTNB, absorbance at 412 nm); assay type: physicochemical; settings: heat loading at 37°C for 5 days; for SH group residual amount: relative to reagent without heat loading
Method: as §1
The quantification of SH group was carried out by using DTNB (5,5'-dithiobis(2-nitrobenzoic acid)). When DTNB is added to the reagent where NAC is present, disulfide linkages corresponding to the amount of SH groups in the NAC are cleaved to generate 5-mercapto-2-nitrobenzoic acid. When 5-mercapto-2-nitrobenzoic acid is generated, the absorbance at a wavelength of 412 nm is increased, and thus this increase can be measured to determine the amount of SH groups in the reagent.
as §2

Row | SMILES | activity of G6PDH after heat loading (in words) (G6PDH) | G6PDH residual activity (G6PDH; stabilizer 20 mM in reagent) | G6PDH residual activity (G6PDH; stabilizer 40 mM in reagent) | amount of SH group of NAC after heat loading (in words) [1] | SH group residual amount ([1]; stabilizer 20 mM in reagent) | SH group residual amount ([1]; stabilizer 40 mM in reagent) | G6PDH residual activity (G6PDH; stabilizer 10 mM in reagent) | SH group residual amount ([1]; stabilizer 10 mM in reagent)
1 | CC(=O)NN [acetohydrazine, reference compound] | the activity of G6PDH was lost | 84.3% | 87.8% | NAC was deteriorated to reduce the amount of SH group | 78.4% | 77.7% | – | –
2 | N=C(N)NN [aminoguanidine] | the activity of G6PDH could be maintained | 92.6% | 94.8% | without reducing the amount of SH group | 95.4% | 94.1% | 88.2% | 92.2%
